Counter-ions that a name gives are not always drawn.
Tests used:
[1] = tested on: L-1210 leukemia; assay: L-1210 Life Prolongation Assay; type: in vivo, mice
Text: L-1210 Life Prolongation Assay^a
^a Intraperitoneal transplants.
^b Q04DX02 = ip injection on days 1 and 5.
Q04HX02 = iv drug dosing on hours 1 and 5.
^c % TC = (median survival time of treated/control animals) ×
^d log of initial tumor cell population minus log of tumor cell
population at the end of treatment. […]

[2] = Toxicity by weight loss in test animals (Protocol 4; toxic = weight loss of ≥4.0 grams); toxic dose; type: in vivo, mice
Text: By "non-toxic", as used herein with reference to the ester compounds of the present invention, is meant a compound which is not toxic according to Protocal 4, section 4.301(b)(3) where toxicity is defined as a weight loss of ≥4.0 grams as reported in R. I. Geran, N. H. Greenberg, M. M. MacDonald, A. M. Schumacher and B. J. Abbott, Cancer Chemotherapy Reports, Part 3, Vol. 3, No. 2, September 1972.

[3] = biological target: T1, topoisomerase I (Bos taurus, UniProt F1MN93); assay: Cleavable complex assay (topoisomerase I inhibition); type: biochemical; settings: S.E. in own column, read-out: IC50, minimum drug concentration that inhibited the cleavable complex formation by 50%
T1 sequence (F1MN93 1-767): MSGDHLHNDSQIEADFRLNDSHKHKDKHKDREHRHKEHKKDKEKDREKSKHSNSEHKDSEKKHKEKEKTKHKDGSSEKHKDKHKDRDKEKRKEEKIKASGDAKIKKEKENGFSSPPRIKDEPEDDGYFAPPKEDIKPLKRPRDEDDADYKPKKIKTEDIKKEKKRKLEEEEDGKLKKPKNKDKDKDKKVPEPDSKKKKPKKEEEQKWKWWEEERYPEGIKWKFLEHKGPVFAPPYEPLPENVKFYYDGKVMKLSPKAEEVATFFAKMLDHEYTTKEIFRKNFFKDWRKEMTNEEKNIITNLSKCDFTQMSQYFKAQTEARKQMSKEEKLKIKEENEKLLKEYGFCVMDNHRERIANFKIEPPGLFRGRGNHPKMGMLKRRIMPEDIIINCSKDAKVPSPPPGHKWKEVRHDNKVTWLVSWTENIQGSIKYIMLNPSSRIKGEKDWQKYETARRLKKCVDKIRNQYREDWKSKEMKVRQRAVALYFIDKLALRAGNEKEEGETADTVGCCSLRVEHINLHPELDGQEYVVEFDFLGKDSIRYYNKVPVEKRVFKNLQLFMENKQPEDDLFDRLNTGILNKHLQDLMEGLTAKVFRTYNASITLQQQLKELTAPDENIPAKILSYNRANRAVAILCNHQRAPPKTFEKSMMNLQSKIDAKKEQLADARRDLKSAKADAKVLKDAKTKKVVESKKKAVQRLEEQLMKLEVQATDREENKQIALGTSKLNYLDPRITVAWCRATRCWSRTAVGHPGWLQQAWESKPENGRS
Text: This relaxation is brought about by breakage of one of the DNA strands in the formation of a covalent topoisomerase I-DNA complex.

[4] = tested on: leukemia and tumor; settings: Wall 1969; cited from earlier work
[5] = background statement; cited from earlier work
[6] = physiological pH, 7.2; Burke et al. 1993; cited from earlier work
[7] = tested on: P388 leukemia; settings: Wall 1983; cited from earlier work
[8] = at highest active dose, ip, Q04DX02 (days 1 and 5)
[9] = at highest active dose, iv, Q04HX02 (hours 1 and 5)
[10] = ip, Q04DX02 (ip injection on days 1 and 5), intraperitoneal transplants
[11] = iv, Q04HX02 (iv drug dosing on hours 1 and 5), intraperitoneal transplants

Which “% T/C = (median survival time of treated/control animals) × 100” value [1, 8] does the source give for `CCC1(OC(=O)CN)C(=O)OCc2c1cc1n(c2=O)Cc2cc3c(N)cccc3nc2-1` (racemic) [9-amino-20-glycinyl-(20RS)-CPT.HCl, 9-amino-20-O-glycinyl-(20RS)-CPT·HCl] here?
Its value is 132%.

What about the “% T/C = (median survival time of treated/control animals) × 100” value [1, 9] of the same compound?
Its value is 168%.

What about the highest active dose ([1]; mouse, in vivo) of the same compound?
The highest active dose was 5 mg/kg.

And the “KE, log of initial tumor cell population minus log of tumor cell population at the end of treatment” value ([1]; mouse, in vivo, ip)?
The value was -1.00.

And the active dose range ([1]; mouse, in vivo, ip)?
The active dose range was 10 mg/kg.

What about the cures ([1]; mouse, in vivo, ip) of the same compound?
The cures was 0.

What about the highest active dose ([1]; mouse, in vivo, ip) of the same compound?
Its highest active dose is 10 mg/kg.

And the “KE, log of initial tumor cell population minus log of tumor cell population at the end of treatment” value ([1]; mouse, in vivo, iv)?
The value was 1.67.

What about the active dose range ([1]; mouse, in vivo, iv) of the same compound?
The active dose range was 2.5 to 5.0 mg/kg.

And the cures ([1]; mouse, in vivo, iv)?
The cures was 1/6.

What about the “toxic dose (not toxic at dose)” value ([2]; ip, Q04DX02 (days 1 and 5)) of the same compound?
Its value is “NT^e at 10”.

What about the “toxic dose (not toxic at dose)” value ([2]; iv, Q04HX02 (hours 1 and 5)) of the same compound?
Its value is “NT at 5”.

Which “% T/C = (median survival time of treated/control animals) × 100” value [1, 8] does the source give for `CCC1(O)C(=O)OCc2c1cc1n(c2=O)Cc2cc3cc4c(cc3nc2-1)OCO4` (racemic) [10,11-(methylenedioxy)-(20RS)-CPT, 10,11-methylenedioxy-20(RS)-camptothecin, reference compound] here?
The value was 325%.

And the “KE, log of initial tumor cell population minus log of tumor cell population at the end of treatment” value ([1]; ip, Q04DX02 (days 1 and 5))?
Its value is 5.97.

What about the active dose range ([1]; ip, Q04DX02 (days 1 and 5)) of the same compound?
The active dose range was 2 to 4 mg/kg.

What about the cures ([1]; ip, Q04DX02 (days 1 and 5)) of the same compound?
Its cures is 2/6.

What about the highest active dose [1, 10] of the same compound?
The highest active dose was 2 mg/kg.

And the toxic dose ([2]; ip, Q04DX02 (days 1 and 5))?
Its toxic dose is 8.0 mg/kg.

Which IC50 [3] does the source give for `CCC1(OC(=O)CN)C(=O)OCc2c1cc1n(c2=O)Cc2cc3cc4c(cc3nc2-1)OCO4` (racemic) [10,11-MDO-20-O-glycinyl-(20RS)-CPT·HCl] here?
The IC50 was 430 nM.

What about the “% T/C = (median survival time of treated/control animals) × 100” value ([1]; iv) of the same compound?
Its value is 236%.

What about the “KE, log of initial tumor cell population minus log of tumor cell population at the end of treatment” value ([1]; iv, Q04HX02 (hours 1 and 5)) of the same compound?
The value was 5.97.

What about the active dose range ([1]; iv, Q04HX02 (hours 1 and 5)) of the same compound?
The active dose range was 1.25 to 20 mg/kg.

And the cures ([1]; iv, Q04HX02 (hours 1 and 5))?
Its cures is 3/6.

What about the highest active dose [1, 11] of the same compound?
Its highest active dose is 10 mg/kg.

What about the toxicity in words ([2]; administered at 20 mg/kg) of the same compound?
The toxicity in words was “non-toxic”.

And the “greater amount of the ester that can be administered than the parent compound” value ([2]; ester vs parent 10,11-methylenedioxy-20(RS)-camptothecin)?
Its value is 10 fold.

And the “toxic dose (not toxic at dose)” value ([2]; iv, Q04HX02 (hours 1 and 5))?
The value was “NT at 20”.

For `CCC1(OC(=O)CN)C(=O)OCc2c1cc1n(c2=O)Cc2cc3cc(N)ccc3nc2-1` (racemic) [10-amino-20-glycinyl-(20RS)-CPT.HCl, 10-amino-20-O-glycinyl-(20RS)-CPT·HCl], which “% T/C = (median survival time of treated/control animals) × 100” value [1, 9] is on record?
The value was 225%.

And the “KE, log of initial tumor cell population minus log of tumor cell population at the end of treatment” value ([1]; iv, Q04HX02 (hours 1 and 5))?
Its value is over 5.97.

What about the active dose range ([1]; iv, Q04HX02 (hours 1 and 5)) of the same compound?
The active dose range was 1.25 to 20 mg/kg.

What about the cures ([1]; iv, Q04HX02 (hours 1 and 5)) of the same compound?
The cures was 0.

And the highest active dose [1, 11]?
The highest active dose was 20 mg/kg.

What about the “toxic dose (not toxic at dose)” value ([2]; iv, Q04HX02 (hours 1 and 5)) of the same compound?
The value was “NT at 20”.

What does the source list for `CCC1(O)C(=O)OCc2c1cc1n(c2=O)Cc2cc3cc(N)ccc3nc2-1` (racemic) [10-amino-(20RS)-CPT, reference compound]?
% T/C = (median survival time of treated/control animals) × 100 ([1]; ip): 365%; KE, log of initial tumor cell population minus log of tumor cell population at the end of treatment ([1]; ip, Q04DX02 (days 1 and 5)): 5.97; active dose range ([1]; ip, Q04DX02 (days 1 and 5)): 1.35 to 3.74 mg/kg; cures ([1]; ip, Q04DX02 (days 1 and 5)): 3/6; highest active dose [1, 10]: 3.75 mg/kg; toxic dose ([2]; ip, Q04DX02 (days 1 and 5)): 6.25 mg/kg

Which “KE, log of initial tumor cell population minus log of tumor cell population at the end of treatment” value ([1]; ip, Q04DX02 (days 1 and 5)) does the source give for `CC[C@@]1(O)C(=O)OCc2c1cc1n(c2=O)Cc2cc3c(N)cccc3nc2-1` [9-amino-(20S)-CPT, reference compound] here?
The value was 4.8.

And the active dose range ([1]; ip, Q04DX02 (days 1 and 5))?
Its active dose range is 5.3 to 12 mg/kg.

What about the cures ([1]; ip, Q04DX02 (days 1 and 5)) of the same compound?
Its cures is 1/6.

What about the highest active dose [1, 10] of the same compound?
The highest active dose was 12 mg/kg.

And the “% T/C = (median survival time of treated/control animals) × 100” value ([1]; mouse, in vivo, ip)?
Its value is 250%.

And the toxic dose ([2]; ip, Q04DX02 (days 1 and 5))?
The toxic dose was 10 mg/kg.

With `CCC1C(=O)OCc2c1cc1n(c2=O)Cc2cc3ccccc3nc2-1` (centres unmarked) [20-desoxy-CPT] as the compound, how does the “antileukemia and antitumor activity” value [4] read?
The value was “inactive”.

With `CCC1(OC(C)=O)C(=O)OCc2c1cc1n(c2=O)Cc2cc3ccccc3nc2-1` (stereo not drawn) [CPT-20α-acetate] as the compound, how does the “antileukemia and antitumor activity” value [4] read?
Its value is “inactive”.

What does the source list for `CC[C@@]1(O)C(=O)OCc2c1cc1n(c2=O)Cc2cc3ccccc3nc2-1` [camptothecin, Camptothecin]?
water solubility [5]: water insoluble; lactone ring opening [6]: opens to a physiologically inactive open form; activity in the P388 leukemia assay [7]: High activity
